Experimental data reported in publication PMC8312882, “STING Ligand-Mediated Priming of Functional CD8^+ T Cells Specific for HIV-1-Protective Epitopes from Naive T Cells” (Journal of Virology, 2021).

Test system: naive T cells in PBMCs of HIV-1-seronegative individuals
Test: In vitro priming of epitope-specific CD8+ T cells from naive T cells (accelerated dendritic cell coculture, tetramer staining)
Format: cell-based, human
Protocol: Naive CD8^+ T-cell precursors specific for HLA-B*52:01-restricted, HLA-A*24:02-restricted, or HLA-C*12:02-restricted ones were primed in vitro by using the accelerated dendritic cell coculture protocol ([23], [24], [56], [57]). On day 0, frozen-thawed PBMCs of HIV-1-seronegative individuals having the HLA-B*52:01-C*12:02 haplotype or HLA-A*24:02 were suspended at 5 × 10^6 cells/well in 24-well tissue culture plates containing AIM-V medium (Invitrogen) supplemented with Flt3L (50 ng/ml; R&D Systems). AIM-V medium supplemented with a 10 μM concentration of each peptide and STING ligand 3′3′-cGAMP (10 μg/ml; InvivoGen) was added on day 1, and then FCS was further added to 10% by volume per well on day 2. On day 10, the cells were collected and then stained with epitope-specific tetramers.
HLA-B*52:01-RI8, -MI8, -SI8, or -WV8 peptide tetrameric complexes (tetramers) and HLA-A*24:02-RF10, HLA-C*12:02-IY11, -MY9, or -RL9 complexes were generated as previously described ([58]). CD8^+ T cells specific for a given epitope were stained with phycoerythrin (PE)-conjugated epitope-specific tetramers at 37°C for 30 min. The cells were then washed twice with RPMI 1640 medium containing 5% FCS (R5), followed by staining with allophycocyanin (APC)-conjugated anti-CD8 MAb (Dako, Denmark) and 7-aminoactinomycin D (7-AAD; BD Pharmingen) at 4°C for 30 min. Finally, the cells were washed twice with R5 and then analyzed by using a FACS Canto II. Primed T cells unstained with tetramer were used as a negative control to determine gating of the tetramer^+ population. The tetramer^+ population was determined based on the gating of the negative control ([…] of tetramer^+ cells).

[1] = HIV-1-uninfected individuals having HLA-B*52:01-C*12:02 haplotype

SMILES: Nc1nc2c(ncn2[C@@H]2O[C@@H]3COP(=O)(O)O[C@H]4[C@@H](O)[C@H](n5cnc6c(N)ncnc65)O[C@@H]4COP(=O)(O)O[C@H]3[C@H]2O)c(=O)[nH]1 [3′3′-cGAMP]
- priming of CD8+ T cells specific for HLA-B*52:01-restricted epitopes from naive T cells [1]: effectively primed CD8^+ T cells specific for 3 of 4 HLA-B*52:01-restricted epitopes
- priming of CD8+ T cells specific for HLA-C*12:02-restricted epitopes from naive T cells [1]: failed to prime those specific for all 3 HLA-C*12:02-restricted epitopes
- mean frequency of NefRF10-specific T cells ± 2 SD (stimulated with 3′3′-cGAMP (10 μg/ml) and NefRF10 peptide (10 μM) after Flt3 ligand 24 h, PBMCs from 7 HIV-1-seronegative HLA-A*24:02+ individuals, HLA-A*24:02-NefRF10 tetramer, 10-day culture, SD): 0.206% ± 0.186%
